Paper PMC7889890, “Structure of photosystem I-LHCI-LHCII from the green alga Chlamydomonas reinhardtii in State 2” (Nature Communications, 2021)

T1: PsaH (Chlamydomonas reinhardtii, UniProt P13352)
T1 construct: mature PSI core subunit within native PSI-LHCI-LHCII supercomplex purified from state 2 thylakoids
T1 sequence (P13352 31-130): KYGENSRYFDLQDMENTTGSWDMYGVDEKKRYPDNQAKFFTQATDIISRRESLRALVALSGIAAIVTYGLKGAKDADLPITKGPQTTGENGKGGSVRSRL

T2: PsaL (Chlamydomonas reinhardtii, UniProt A8IL32)
T2 construct: gene CHLRE_12g486300v5; mature PSI core subunit within native PSI-LHCI-LHCII supercomplex purified from state 2 thylakoids
T2 sequence (A8IL32 36-196): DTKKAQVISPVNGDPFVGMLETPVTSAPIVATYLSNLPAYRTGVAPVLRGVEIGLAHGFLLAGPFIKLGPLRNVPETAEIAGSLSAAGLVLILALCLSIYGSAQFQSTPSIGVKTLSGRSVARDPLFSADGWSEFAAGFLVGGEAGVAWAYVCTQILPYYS

T3: PsaD (Chlamydomonas reinhardtii (endogenous …, UniProt Q39615 36-196))
T3 construct: PSI core subunit PsaD of C. reinhardtii; source: endogenous, C. reinhardtii CC-137 cells in state 2; thylakoid membranes solubilised with α-DDM, PSI-LHCI-LHCII purified (sucrose density gradient, gel filtration)
T3 sequence (looked up): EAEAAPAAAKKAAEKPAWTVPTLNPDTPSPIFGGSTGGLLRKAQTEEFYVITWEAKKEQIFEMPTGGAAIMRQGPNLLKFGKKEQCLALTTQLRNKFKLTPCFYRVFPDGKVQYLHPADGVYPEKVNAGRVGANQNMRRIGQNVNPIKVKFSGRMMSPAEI


Assays:
PsaA = target: T4, PsaA (Chlamydomonas reinhardtii, UniProt P12154); type: binding; conditions: Bcr850; native supercomplex
T4 construct: PSI core subunit within native PSI-LHCI-LHCII supercomplex purified from state 2 thylakoids

PsaH = target: T1, PsaH; type: binding; conditions: Bcr204; native supercomplex
PsaL = target: T2, PsaL; type: binding; conditions: Bcr201, Bcr205, Bcr206; native supercomplex
PsaD = target: T3, PsaD; assay: cryo-EM structure; single-particle cryo-EM of the PSI-LHCI-LHCII supercomplex purified from state 2 cells; 3.42 Å overall; 10 mM Hepes-KOH pH 7.5, 50 mM NaCl, 1 mM NaN3, 10 mM NaF, 0.01% α-DDM; conditions: both partners purified

T4 sequence (P12154 whole entry): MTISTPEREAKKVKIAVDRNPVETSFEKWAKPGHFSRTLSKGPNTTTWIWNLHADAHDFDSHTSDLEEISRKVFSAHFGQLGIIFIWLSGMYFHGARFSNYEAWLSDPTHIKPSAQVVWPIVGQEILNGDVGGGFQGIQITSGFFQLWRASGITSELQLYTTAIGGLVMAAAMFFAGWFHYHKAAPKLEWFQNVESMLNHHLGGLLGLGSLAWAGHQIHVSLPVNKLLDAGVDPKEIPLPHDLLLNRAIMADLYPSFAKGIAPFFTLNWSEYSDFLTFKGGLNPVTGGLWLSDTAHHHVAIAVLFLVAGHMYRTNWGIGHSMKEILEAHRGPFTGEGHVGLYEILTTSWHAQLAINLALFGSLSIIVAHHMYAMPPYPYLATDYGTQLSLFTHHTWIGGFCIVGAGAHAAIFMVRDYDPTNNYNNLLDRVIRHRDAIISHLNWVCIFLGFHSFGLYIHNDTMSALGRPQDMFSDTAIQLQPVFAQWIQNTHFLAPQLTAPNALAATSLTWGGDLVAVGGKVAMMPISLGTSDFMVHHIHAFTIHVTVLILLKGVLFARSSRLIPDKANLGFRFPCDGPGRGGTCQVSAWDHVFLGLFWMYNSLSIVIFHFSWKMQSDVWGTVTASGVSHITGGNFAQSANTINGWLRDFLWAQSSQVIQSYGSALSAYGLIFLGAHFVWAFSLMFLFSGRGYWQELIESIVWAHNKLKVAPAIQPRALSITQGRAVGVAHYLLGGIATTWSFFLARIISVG

binding result (PsaD) | Molecule | cryo-EM structure, 3.42 Å (PsaA) | cryo-EM structure, 3.42 Å (PsaH) | cryo-EM structure, 3.42 Å (PsaL)
 | CC1=C(/C=C/C(C)=C/C=C/C(C)=C/C=C/C=C(C)/C=C/C=C(C)/C=C/C2=C(C)CCCC2(C)C)C(C)(C)CCC1 [BCR] | Bcr850 of PsaA interacts with helix A of PsaO | one BCR (Bcr204) were found to bind to PsaH in the present structure | three BCRs (Bcr201, Bcr205 and Bcr206) were observed in the green algal PsaL
binds | PsaH (natural protein, UniProt P13352 31-130, looked up, PSI core subunit PsaH of C. reinhardtii; also called Cr-PsaH; source: endogenous, C. reinhardtii CC-137 cells in state 2; thylakoid membranes solubilised with α-DDM, PSI-LHCI-LHCII purified (sucrose density gradient, gel filtration)) KYGENSRYFDLQDMENTTGSWDMYGVDEKKRYPDNQAKFFTQATDIISRRESLRALVALSGIAAIVTYGLKGAKDADLPITKGPQTTGENGKGGSVRSRL |  |  | 
